Results: patent US8748626B2, “Oxazole and thiazole compounds as KSP inhibitors” (Novartis AG, priority 2010, dated 2014)

Experiments:
tumor cell lines = assay: Inhibition of cellular proliferation in tumor cell lines (CellTiter-Glo); format: cell-based; details: 50% growth inhibition at 72 hours of continuous compound exposure; cell line not specified; read-out: Biological Activity GI50
Procedure: Cells are plated in 96-well plates at densities of about 500 cells per well of a 96-well plate and are allowed to grow for 24 hours. The cells are then treated with various concentrations of compounds for 72 hours. Then, 100 μl of CellTiter-Glo® solution are added. The CellTiter-Glo® assay measures the amount of ATP present in the well after lysing the cells; the ATP released is used in an enzymatic reaction including the enzyme Luciferease and its substrate Luciferin. The amount of light emitted is proportional to the amount of ATP, which in turn is proportional to the number of live cells in the well. (see Promega product catalog #G7573, CellTiter-Glo® Luminescent Cell Viability Assay). The cells are then incubated in the dark for 30 minutes. The amount of luminescence is determined for each well using a Wallac Trilux plate reader, which correlates with the number of cells per well. The number of viable cells in the wells that receive only DMSO (0.5%) serve as an indication of 0°/a inhibition, while wells without cells serve as 100% inhibition of cell growth. The compound concentration that results in a 50% growth inhibition (GI50) is determined graphically from sigmoidal dose-response curves of log-transformed dose values versus cell counts (percent of control) at 72 hours of continuous compound exposure.
The cell lines used are listed below.
The cell proliferation assay is performed as described above. • Cancer Cell Lines • Colo 205—colon carcinoma • RPMI 1640+10% FBS+1% L-glutamine+1% P/S+1% NaPyr.+Hepes+4.5 g/L Glucose+1% NaBicarb. • MDA 435—breast cancer—high met • EMEM+10% FBS+1% P/S+1% L-Glutamine+1% NEAA+1% NaPyr+1% vitamins • HCT-15 and HCT116—colon carcinoma • RPMI 1640+10% FBS+1% L-glutamine+1% P/S • Drug Resistant Cell Lines • KB3.1—[…] epidermal carcinoma; parental cell line • Iscove's+10% FBS+1% L-glutamine+1% P/S • KBV1—p-glycoprotein associated multi-drug resistant cell line • RPMI 1640+10% FBS+1% L-glutamine+1% P/S+0.2 ug/mL Vinblastine • KB85—p-glycoprotein associated multi-drug resistant cell line • DMEM+10% FBS+1% L-glutamine+1% P/S+10 ng/mL Colchicine

[1] = target: motor domain of human KSP (Eg 5, KNSL1) (Homo sapiens (Human), UniProt P52732); assay: Assay for determining KSP activity (microtubule-stimulated ATPase, Biomol Green); format: biochemical; details: KSP motor domain 45 nM, microtubules 35 μg/mL, ATP, 1 hour RT, absorbance 630 nm; read-out: Biological Activity IC50
Source text: This example provides a representative in vitro assay for determining KSP activity in vitro. Purified microtubules obtained from bovine brain were purchased from Cytoskeleton Inc. (Denver, Colo., USA). The motor domain of human KSP (Eg 5, KNSL1) was cloned, expressed, and purified to greater than 95% homogeneity. Biomol Green was purchased from Affinity Research Products Ltd. (Matford Court, Exeter, Devon, United Kingdom). Microtubules and KSP motor protein (i.e., the KSP motor domain) were diluted in assay buffer (20 mM Tris-HCl (pH 7.5), 1 mM MgCl2, 10 mM DTT and 0.25 mg/mL BSA) to a final concentration of 35 μg/mL microtubules and 45 nM KSP. The microtubule/KSP mixture was then pre-incubated at 37° C. for 10 min to promote the binding of KSP to microtubules.
To each well of the testing plate (384-well plate) containing 1.25 μL of inhibitor or test compound in DMSO (or DMSO only in the case of controls) were added 25 μL of ATP solution (ATP diluted to a concentration of 300 μM in assay buffer) and 25 μL of the above-described microtubule/KSP solution. The plates were incubated at RT for 1 hour. Following incubation, 65 μL of Biomol Green (a malachite green-based dye that detects the release of inorganic phosphate) was added to each well. The plates were incubated for an additional 5-10 minutes then the absorbance at 630 nm was determined using a Victor II plate reader. The amount of absorbance at 630 nm corresponded to the amount of KSP activity in the samples. The IC50 of each inhibitor or test compound was then determined based on the decrease in absorbance at 630 nm at each concentration, via nonlinear regression using either XLFit for Excel or Prism data analysis software by GraphPad Software Inc.

Chain of motor domain of human KSP (Eg 5, KNSL1) (P52732 18-359): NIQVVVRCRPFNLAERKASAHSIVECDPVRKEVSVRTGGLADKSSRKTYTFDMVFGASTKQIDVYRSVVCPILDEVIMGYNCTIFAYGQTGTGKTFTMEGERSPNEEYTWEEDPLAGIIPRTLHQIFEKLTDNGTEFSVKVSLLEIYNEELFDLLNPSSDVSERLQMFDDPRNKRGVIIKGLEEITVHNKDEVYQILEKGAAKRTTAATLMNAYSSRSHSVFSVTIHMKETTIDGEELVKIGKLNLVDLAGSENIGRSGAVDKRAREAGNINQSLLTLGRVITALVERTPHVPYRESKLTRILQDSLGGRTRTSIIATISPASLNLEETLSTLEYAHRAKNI

GI50 (tumor cell lines) [nM]	IC50 [1] [nM]	Structure (SMILES)
0.18	0.84	C[C@H](O)C(=O)N(C[C@@H]1CNC[C@@H]1F)[C@@H](c1nc(-c2cc(F)ccc2F)sc1Cc1ccccc1)C(C)(C)C [Example 1, (S)-N-((R)-1-(5-benzyl-2-(2,5-difluorophenyl)thiazol-4-yl)-2,2-dimethylpropyl)-N-(((3S,4R)-4-fluoropyrrolidin-3-yl)methyl)-2-hydroxypropanamide]
1.4	10	CC(C)(C)[C@H](c1nc(-c2cc(F)ccc2F)sc1Cc1ccccc1)N(C[C@@H]1CNC[C@@H]1F)C(=O)[C@@H]1CCCO1 [Example 2, (S)-N-((R)-1-(5-benzyl-2-(2,5-difluorophenyl)thiazol-4-yl)-2,2-dimethylpropyl)-N-(((3S,4R)-4-fluoropyrrolidin-3-yl)methyl)tetrahydrofuran-2-carboxamide]
2.2	2.6	C[C@H](O)C(=O)N(CC[C@H](N)CF)[C@@H](c1nc(-c2cc(F)ccc2F)sc1Cc1ccccc1)C(C)(C)C [Example 3, (S)-N-((S)-3-amino-4-fluorobutyl)-N-((R)-1-(5-benzyl-2-(2,5-difluorophenyl)thiazol-4-yl)-2,2-dimethylpropyl)-2-hydroxypropanamide]
3.5	7.18	C[C@H](O)C(=O)N(C[C@@H]1CNC[C@@H]1F)[C@@H](c1nc(-c2cc(F)ccc2F)oc1Cc1ccccc1)C(C)(C)C [Example 4, (S)-N-((R)-1-(5-benzyl-2-(2,5-difluorophenyl)oxazol-4-yl)-2,2-dimethylpropyl)-N-(((3S,4R)-4-fluoropyrrolidin-3-yl)methyl)-2-hydroxypropanamide]
4.82	2.54	C[C@H](O)C(=O)N(CC[C@H](N)CF)[C@@H](c1nc(-c2cc(F)ccc2F)oc1Cc1ccccc1)C(C)(C)C [Example 5, (S)-N-((S)-3-amino-4-fluorobutyl)-N-((R)-1-(5-benzyl-2-(2,5-difluorophenyl)oxazol-4-yl)-2,2-dimethylpropyl)-2-hydroxypropanamide]
	1000	C[C@H](O)C(=O)N(C[C@@H]1CNC[C@@H]1F)[C@H](c1nc(-c2cc(F)ccc2F)oc1Cc1ccccc1)C(C)(C)C [Example 6, (S)-N-((S)-1-(5-benzyl-2-(2,5-difluorophenyl)oxazol-4-yl)-2,2-dimethylpropyl)-N-(((3S,4R)-4-fluoropyrrolidin-3-yl)methyl)-2-hydroxypropanamide]
	631	C[C@H](O)C(=O)N(CC[C@H](N)CF)[C@H](c1nc(-c2cc(F)ccc2F)oc1Cc1ccccc1)C(C)(C)C [Example 7, (S)-N-((S)-3-amino-4-fluorobutyl)-N-((S)-1-(5-benzyl-2-(2,5-difluorophenyl)oxazol-4-yl)-2,2-dimethylpropyl)-2-hydroxypropanamide]
944		C[C@H](O)C(=O)N(CC[C@H](N)CF)[C@H](c1nc(-c2cc(F)ccc2F)sc1Cc1ccccc1)C(C)(C)C [Example 8, (S)-N-((S)-3-amino-4-fluorobutyl)-N-((S)-1-(5-benzyl-2-(2,5-difluorophenyl)thiazol-4-yl)-2,2-dimethylpropyl)-2-hydroxypropanamide]
